{"source": "patent US10245256B2", "about": "“Nitroxides for use in treating or preventing diabetes and obesity” (Mitos Pharmaceuticals, Inc., priority 2005, dated 2019)", "key": {"[1]": {"tested_on": "Keratinocyte Growth Factor (Fibroblast Growth Factor 7)", "assay": "Gene expression in cardiac tissue of mice fed Tempol, chip-based microarray", "type": "in vivo", "conditions": "5 mg/g of food from 14 to 31 months", "experimental": "To assess the effects of Tempol on gene expression, Tempol was administered to experimental mice at a dose of 5 mg/g of food from 14 months to 31 months after birth. Mice receiving the same food without the addition of Tempol were used as a negative control. At the age of 31 months, the experimental animals were sacrificed and the hearts were surgically removed. The expression of a broad spectrum of genes in the cardiac tissue was assessed using chip-based microarray technology. Such chips are well known in the art and are widely used to assess gene expression."}, "[2]": {"tested_on": "Adiponectin, C1Q and collagen domain containing (ADIPOQ)", "assay": "Gene expression in adipose tissue of mice fed Tempol, Affymetrix MOE430A 2.0 array", "type": "in vivo", "conditions": "5 g/kg of diet from 12 through 15 months", "experimental": "In a further gene expression study, Tempol was administered to experimental mice at a dose of 5 g/kg of diet from 12 months through 15 months. Mice receiving the same diet without the addition of Tempol were used as a negative control. At the age of 15 months, the adipose tissue of the experimental animals was obtained. The expression of a broad spectrum of genes in the adipose tissue was assessed using chip-based microarray technology. Specifically, in this case an Affymetrix MOE430A 2.0 array, containing 12,960 genes, was employed. Such chips are well known in the art and are widely used to assess gene expression."}, "[3]": {"tested_on": "keratinocyte growth factor", "assay": "Protein level of keratinocyte growth factor in pancreatic ductal cells of patient after Tempol treatment", "type": "in vivo, human", "conditions": "1500 mg per day for 180 days", "experimental": "(§1) A 70-kilogram diabetic patient is administered a dose of 1500 mg of Tempol per day for 180 days. This may be administered in a single dose, or may be administered as a number of smaller doses over a 24-hour period: for example, three 500-mg doses at eight-hour intervals. Following treatment, the protein level of keratinocyte growth factor in the pancreatic ductal cells, and the serum level of adiponectin, is increased.\nas §1, with “70-kilogram” for “70-kilogram diabetic”, “patient at risk for but not yet diagnosed with diabetes” for “patient”"}, "adiponectin": {"tested_on": "adiponectin", "assay": "Serum level of adiponectin of patient after Tempol treatment", "type": "in vivo, human", "conditions": "1500 mg per day for 180 days", "experimental": "as §1\nas §1, with “70-kilogram” for “70-kilogram diabetic”, “patient at risk for but not yet diagnosed with diabetes” for “patient”"}, "[4]": {"conditions": "70-kilogram patient at risk for but not yet diagnosed with diabetes"}}}
{"molecule": "CC1(C)CC(O)CC(C)(C)N1[O]", "note": "[Tempol, 4-hydroxy-2,2,6,6-tetramethylpiperidine-1-oxyl]", "values": [{"measurement": "KGF expression, TEMPOL-treated mouse tp51", "setting": "[1]; microarray signal, individual animal tp51", "result": 13}, {"measurement": "KGF expression, TEMPOL-treated mouse tp52", "setting": "[1]; microarray signal, individual animal tp52", "result": 52}, {"measurement": "KGF expression, TEMPOL-treated mouse tp53", "setting": "[1]; microarray signal, individual animal tp53", "result": 96}, {"measurement": "Fold change of KGF expression", "setting": "[1]; TEMPOL-treated vs control mice", "result": 2.1, "unit": "fold"}, {"measurement": "Mean adiponectin expression (Tempol-treated mice)", "setting": "[2]; microarray signal, control mean 27698", "result": 33876}, {"measurement": "Fold change of adiponectin expression", "setting": "[2]; Tempol-treated vs control mice, P value 0.003", "result": "increase in expression"}, {"measurement": "protein level of keratinocyte growth factor in the pancreatic ductal cells", "setting": "[3]; 70-kilogram diabetic patient", "result": "increased"}, {"measurement": "protein level of keratinocyte growth factor in the pancreatic ductal cells", "setting": "[3]; [4]", "result": "increased"}, {"measurement": "serum level of adiponectin", "setting": "adiponectin; 70-kilogram diabetic patient", "result": "increased"}, {"measurement": "serum level of adiponectin", "setting": "adiponectin; [4]", "result": "increased"}]}
